According to article PMC10338423, “Synthesis and preclinical evaluation of a novel fluorine-18 labeled small-molecule PET radiotracer for imaging of CXCR3 receptor in mouse models of atherosclerosis” (EJNMMI Research, 2023):

Legend:
CXCR3 [1] = molecular target: T1, CXCR3 (Mus musculus, UniProt O88410); experiment: PET/CT imaging, baseline and self-blocking, in ApoE KO mice on high-fat diet; type: in vivo
T1 construct: tissue Jackson Laboratory (mice); host or cells: In vivo: atherosclerotic abdominal aorta and brown adipose tissue of ApoE KO mice (high-fat diet) and C57BL/6 control mice (normal diet)
T1 sequence (O88410 1-367): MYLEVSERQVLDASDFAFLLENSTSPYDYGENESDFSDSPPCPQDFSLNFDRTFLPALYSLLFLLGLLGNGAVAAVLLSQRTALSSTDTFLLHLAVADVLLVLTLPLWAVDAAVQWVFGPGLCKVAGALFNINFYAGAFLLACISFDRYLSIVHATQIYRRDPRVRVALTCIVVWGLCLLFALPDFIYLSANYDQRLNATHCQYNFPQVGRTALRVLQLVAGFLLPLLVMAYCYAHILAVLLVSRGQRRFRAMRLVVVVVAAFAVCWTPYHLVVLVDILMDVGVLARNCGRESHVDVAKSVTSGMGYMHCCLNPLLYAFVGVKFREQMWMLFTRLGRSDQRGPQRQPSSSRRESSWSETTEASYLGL
Description: (§1) [^18F]1 was further evaluated for reliability as a CXCR3 radiotracer using mouse models of atherosclerosis. For this purpose, we tested [^18F]1 in ApoE KO mice, a widely used murine model of atherosclerosis. Six-week-old ApoE KO male mice (N = 6) and C57BL/6 male control mice (i.e., a background strain of ApoE KO mouse, ApoE-wildtype control; N = 6) were purchased from Jackson Laboratory (Bar Harbor, ME). The ApoE KO mice were placed on a high-fat diet over 12 weeks to accelerate atherosclerosis development. […] At 12 weeks, PET/computed tomography (CT) studies were performed using both mice groups. Dynamic PET scans (90 min acquisition) were performed beginning 5 min after the intravenous injection of [^18F]1 followed by a ~ 10 min CT scan. Usually, one week after the baseline PET/CT scan, the corresponding blocking PET/CT scan was performed. This time, 1·HCl salt (5 mg/kg) was used as a blocking agent and intravenously injected 5 min before the radiotracer injection.
(§2) All animal studies were performed at the VA Biomolecular Imaging Center (VA BIC) at the Harry S. Truman Memorial Veterans’ Hospital (Columbia, MO). Six-week-old ApoE KO male mice and C57BL/6 control male mice were purchased from Jackson Laboratory. All mice were housed in the controlled vivarium during the studies. All ApoE KO mice were fed with high-fat chow that contained 42% fat, 34% of that contained unsaturated fat (TD.88137, Envigo, Indianapolis, IN), one week after the arrival and continued the feeding until the end of the study. The first PET/CT scans were performed 12 weeks after initiating the high-fat diet, and the second PET/CT scans that used 1·HCl as a blocking agent were performed at least one week after the first PET/CT scans. Meanwhile, C57BL/6 control mice were fed with normal chow over the same schedule to match with ApoE KO mice.
(§3) Maximum intensity micro-PET images were obtained on a Siemens INVEON small-animal PET/CT scanner (Siemens Medical Solutions USA, Inc., Malvern, PA). […] The micro-PET data was analyzed using Siemens Inveon Research Workplace, General Analysis software. […]

CXCR3 [2] = molecular target: T1, CXCR3; experiment: PET/CT imaging, baseline and self-blocking, in C57BL/6 control mice on normal diet; type: in vivo
Description: as §1, §2, §3

[3] = 1·HCl 5 mg/kg i.v. 5 min before tracer
[4] = blocking study with 1·HCl 5 mg/kg i.v., stated for both groups

- blocking effect in BAT (from AUC of TACs) (CXCR3 [1]; [3]): 23.4%
- blocking effect in atherosclerotic abdominal aorta (from AUC of TACs) (CXCR3 [1]; [3]): 16.9%
- standard uptake value (SUV), BAT region (CXCR3 [1]; [4]): 1.2–1.5
- blocking effect in BAT (from AUC of TACs) (CXCR3 [2]; [3]): 45.9%
- blocking effect in abdominal aorta (from AUC of TACs) (CXCR3 [2]; [3]): 4.7%
- standard uptake value (SUV), BAT region (CXCR3 [2]; [4]): 1.2–1.5
SMILES: CC[C@H]1CN(c2ncc(-c3nnco3)cc2Cl)CCN1C1CCN(Cc2ccc(Cl)cc2[18F])CC1 [[^18F]1]
